This note sets out measurements from patent publication US4277465A, “Adjuvant for promoting absorption of therapeutically active substances through the digestive tract” (Kyoto Yakuhin Kogyo Kabushiki Kaisha, priority 1978, dated 1981).

Series [1] is described as follows: Stability in aqueous solution (half-life of enamine derivatives). Type of series: physicochemical. The settings on record: pH 7.4 phosphate buffer, μ 0.15, 25° C., UV absorption spectrometry; "stable" = enamine structure retained even after 6 hours. The protocol: To examine the stability in water of the enamine derivatives (I) obtained above, some representative compounds were selected and their half-lives [t 0.5 (min.)] in pH 7.4 phosphate buffer (μ: 0.15, temp.: 25° C.) were determined by ultraviolet absorption spectrometry. In the Table, "stable" means that the enamine structure was retained even after 6 hours.

A short description of series [2]: Rectal ointment of CET-Na with enamine derivative, blood concentration. Type of series: in vivo, rabbit. The following applies: CET; rectal ointment CET.Na 20%, enamine derivative 10%; dose 50 mg CET.Na/kg. The procedure: Cephalothin sodium (briefly CET-Na), a drug which is sparingly absorbed from the rectum, was selected for a test. Thus, CET-Na was dispersed in liquid paraffin-white vaseline base to prepare rectal ointment. The ointment was administered to rabbits by the rectal route. […] The blood concentration was measured in conformity with the biological assay method in the Antibiotic Standard of Japan. […]

Series [3] can be described thus: Rectal ointment of AB-PC.Na with enamine derivative, blood concentration. Type of series: in vivo, rabbit. The following applies: rectal ointment AB-PC.Na 10%, enamine derivative 10%, dose 15 mg AB-PC.Na/kg. The protocol: (§1) AB-PC and cephalexin (briefly, CEX), both of which are sparingly absorbed from the rectum, are also tested. Thus, enamine derivatives (I) and these antibiotics were used to prepare rectal ointments in accordance with established practice. The ointments were administered to rabbits to investigate the peak blood concentrations (μg/ml) and AUC (μg.min./ml).
Dose: 15mg AB-PC . Na/kg
Compounds 3, 5, 13 and 14 were used as said enamine derivatives (I) in Recipes 4, 5, 6 and 7, respectively.

Series [4] is described as follows: Rectal ointment of CEX.H2O with enamine derivative, blood concentration. It is filed as in vivo, rabbit. The settings on record: rectal ointment CEX.H2O 20%, enamine derivative 10%, dose 50 mg CEX.H2O/kg. The procedure: as §1
Dose: 50 mg CEX . H2 O/kg

The nature of series [5]: Rectal insulin suppositories (Recipes 35-41), glucose response. Type of series: in vivo. The settings on record: rectal suppository 6 I.U. insulin, enamine derivative 0.025g (5%). The source says:
These suppositories were rectally administered to rabbits (R, 2.5-3kg) and dogs (D, 12-13kg).

Series [6] can be described thus: Rectal suppositories of CET-Na with enamine derivative, concentration in blood. It is filed as in vivo. The settings on record: dog. The procedure: These suppositories were rectally administered to dogs and the absorbabilities of the active components were investigated by measuring the blood concentrations.
The blood concentrations were measured in conformity with the biological assay method in the Antibiotic Standard of Japan. The cup method was employed with Sarcina lutea for penicillins and Bacillus subtilis for cephalosporins.

Series [7] is described as follows: Rectal inulin dosage form with adjuvant, urinary recovery of inulin. It is filed as in vivo, human. The following applies: in Witepsol H-15, level of addition of enamine derivative 2%, Lunt method. The procedure: The following dosage forms (dispersed in Witepsol H-15®) were rectally administered to dogs and humans to measure the urinary recovery rates of inulin. […] The test was carried out by the Lunt method.

Series [8] can be described thus: Rectal suppositories of AB-PC-Na with enamine derivative, concentration in blood. It is filed as in vivo. The settings on record: AB-PC-Na 75mg, dog. The procedure: These suppositories were rectally administered to dogs and the absorbabilities of the active components were investigated by measuring the blood concentrations. The blood concentrations were measured in conformity with the biological assay method in the Antibiotic Standard of Japan. The cup method was employed with Sarcina lutea for penicillins and Bacillus subtilis for cephalosporins.

The mark [9] stands for this setting: CET-Na 75mg, enamine derivative 60mg (5%), base SB-W 1065mg.
[10] abbreviates: enamine derivative 60mg, base SB-W 1065mg.
Setting [11] is: CET-Na 500mg, enamine derivative 150mg (10%), base Witepsol H-15 850mg.
Where [12] appears, read: CET-Na 75mg, enamine derivative 120mg (10%), base Witepsol H-15 1005mg.
Setting [13] is: enamine derivative 120mg (10%), base SB-W 1005mg.
Setting [14] is: CET-Na 75mg, enamine derivative 60mg (5%), base Witepsol H-15 1065mg.

The term AUC denotes the area under the concentration-time curve, a measure of exposure. Lower therefore signals low exposure.

Take `CCOC(=O)C=C(C)NCC(=O)NCC(=O)[O-].[Na+]` [Compound 15, N-(1-Methyl-2-ethoxycarbonylvinyl)glycylglycine sodium salt]: the “half-life t 0.5” value in series [1] is 31.8 min. In series [2], this molecule yielded an exposure (AUC) of 102 µg·min/mL and a Peak blood concentration of 1.8 µg/mL.
As for `CCOC(=O)C=C(C)N1CCC[C@H]1C(=O)[O-].[Na+]` [Compound 13, N-(1-Methyl-2-ethoxycarbonylvinyl)-L-proline sodium salt], in series [1], the “half-life t 0.5” value is 3.1 min. The AUC in series [3] is 108 µg·min/mL; in series [4] it was 733 µg·min/mL; in series [2], 25 µg·min/mL. For the same molecule, the results for the Peak blood concentration in series [3], in series [4] and in series [2] were 2.6 µg/mL, 6.5 µg/mL and 2.5 µg/mL, respectively.
For `CCOC(=O)C=C(C)NCCCC[C@H](NC(C)=CC(=O)OCC)C(=O)[O-].[Na+]` [Compound 17, N,N'-Bis(1-methyl-2-ethoxycarbonylvinyl)-L-lysine sodium salt], the “half-life t 0.5” value in series [1] is 22.9 min. For the same molecule, in series [2], the AUC worked out at 396 µg·min/mL and the Peak blood concentration turned out to be 8.7 µg/mL.
Turning to `CCOC(=O)C(C)OC(=O)C=C(C)NCC(=O)[O-].[Na+]` (stereo not shown) [Compound 32, N-[1-Methyl-2-(1-ethoxycarbonyl-ethoxycarbonyl)vinyl]glycine sodium salt], in series [5] (dog 12-13kg), the “Blood glucose response (6 I.U.)” value is on record as 30-40%, the “Time course: Lowest level” value is 30 to 60 min, the “Time course: Onset” value was determined as 30 min and the “Time course: Return to pre-medication level” value (from here on “Time course: Return”) stood at 120 min. Moreover, in series [5] (rabbit 2.5-3kg), the “Blood glucose response (6 I.U.)” value is 45-55%, the “Time course: Lowest level” value lay within 45 to 60 min, the “Time course: Onset” value is 15 min and the “Time course: Return” value turned out to be 150 min. Besides, in series [6] (setting [9]), the “Concentration in blood, 15 min.” value stood at 1500 ng/mL; the “Concentration in blood, 30 min.” value came to 1120 ng/mL; the “Concentration in blood, 60 min.” value was 730 ng/mL; the “Concentration in blood, 120 min.” value stood at 400 ng/mL.
In series [2], `CCOC(=O)C=C(C)N[C@@H](C(=O)OC)c1ccccc1` [Compound 8, Methyl-N-(1-methyl-2-ethoxycarbonylvinyl)-D-phenylglycinate] gave an AUC of 49 µg·min/mL and a Peak blood concentration of 3.8 µg/mL.
On to `CCCCOC(=O)C1=C(N[C@@H](C(=O)[O-])c2ccccc2)CCC1.[Na+]` [Compound 7, N-(2-Butoxycarbonyl-1-cyclopenten-1-yl)-D-phenylglycine sodium salt], for which the “half-life t 0.5” value in series [1] is “Stable”.
With `CC(=O)C=C(C)N[C@@H](C(=O)[O-])c1ccccc1.[Na+]` [Compound 4, N-(1-Methyl-2-acetylvinyl)-D-phenylglycine sodium salt], in series [1], the “half-life t 0.5” value is “Stable”. In series [2], the AUC is 568 µg·min/mL and the Peak blood concentration came to 11.0 µg/mL.
With `CCOC(=O)C=C(C)NCC(=O)[O-].[Na+]` [Compound 1, N-(1-Methyl-2-ethoxycarbonylvinyl)glycine sodium salt], the “half-life t 0.5” value in series [1] was determined as 3.7 min. For the same molecule, the “% Urinary recovery” value in series [7] was found to be 12%. Further, in series [8] (setting [10]), the “Concentration in blood, 15 min.” value worked out at 1230 ng/mL; the “Concentration in blood, 30 min.” value was determined as 870 ng/mL; the “Concentration in blood, 60 min.” value turned out to be 610 ng/mL; the “Concentration in blood, 120 min.” value is 320 ng/mL.
Regarding `CCOC(=O)C(=CN[C@@H](C(=O)[O-])c1ccccc1)C(=O)OCC.[Na+]` [Compound 5, N-[2,2-bis(ethoxycarbonyl)vinyl]-D-phenylglycine sodium salt], in series [1], the “half-life t 0.5” value is recorded as “Stable”. Further, the AUC is 149 µg·min/mL in series [3] and 306 µg·min/mL in series [2]. The values for the Peak blood concentration in series [3] and in series [2] were 4.7 µg/mL and 6.1 µg/mL, respectively.
As for `CCOC(=O)C=C(C)NCCCC(=O)[O-].[Na+]` [Compound 2, N-(1-Methyl-2-ethoxycarbonylvinyl)-γ-aminobutyric acid sodium salt], the “half-life t 0.5” value in series [1] turned out to be 18.8 min. Also, in series [4], the AUC was found to be 278 µg·min/mL and the Peak blood concentration is 6.7 µg/mL. In series [2], this molecule yielded an AUC of 315 µg·min/mL and a Peak blood concentration of 6.3 µg/mL.
Take `CCOC(=O)C=C(C)NC(Cc1ccccc1)C(=O)[O-].[Na+]` (racemic) [Compound 10, N-(1-Methyl-2-ethoxycarbonylvinyl)-DL-phenylalanine sodium salt]: the “half-life t 0.5” value in series [1] was 15.7 min. For the same molecule, in series [6] (setting [11]), the “Concentration in blood, 15 min.” value worked out at 15300 ng/mL; the “Concentration in blood, 30 min.” value stood at 11730 ng/mL; the “Concentration in blood, 60 min.” value stood at 6750 ng/mL; the “Concentration in blood, 120 min.” value came out at 2200 ng/mL.
Consider `CCOC(=O)C=C(C)NCCS(=O)(=O)[O-].[Na+]` [Compound 14, N-(1-Methyl-2-ethoxycarbonylvinyl)taurine sodium salt], for which the “half-life t 0.5” value in series [1] stood at 24.0 min. Further, the results for the AUC in series [3] and in series [2] were 239 µg·min/mL and 250 µg·min/mL, respectively. In addition, the results for the Peak blood concentration in series [3] and in series [2] were 5.9 µg/mL and 7.8 µg/mL, respectively.
`CCOC(=O)CNC(=O)C=C(C)N[C@@H](Cc1ccccc1)C(=O)[O-].[Na+]` [Compound 37, N-(1-Methyl-2-ethoxycarbonylmethylcarbamoyl-vinyl)-L-phenylalanine sodium salt]: in series [5] (rabbit 2.5-3kg), the “Blood glucose response (6 I.U.)” value is listed as 20-30%, the “Time course: Lowest level” value was in the range of 30 to 60 min, the “Time course: Onset” value amounted to 30 min and the “Time course: Return” value was 120 min. In addition, in series [6] (setting [12]), the “Concentration in blood, 15 min.” value worked out at 1500 ng/mL; the “Concentration in blood, 30 min.” value amounted to 1280 ng/mL; the “Concentration in blood, 60 min.” value came to 870 ng/mL; the “Concentration in blood, 120 min.” value was found to be 440 ng/mL.
In the case of `CCOC(=O)C=C(C)N[C@@H](CCC(=O)[O-])C(=O)[O-].[Na+].[Na+]` [Compound 16, N-(1-Methyl-2-ethoxycarbonylvinyl)-L-glutamic acid sodium salt], the “half-life t 0.5” value in series [1] was found to be 16.3 min. Further, in series [8] (setting [13]), the “Concentration in blood, 15 min.” value is 690 ng/mL; the “Concentration in blood, 30 min.” value worked out at 480 ng/mL; the “Concentration in blood, 60 min.” value turned out to be 520 ng/mL; the “Concentration in blood, 120 min.” value is 290 ng/mL.
In the case of `CCOC(=O)C(C)OC(=O)C=C(C)N[C@@H](Cc1ccccc1)C(=O)[O-].[Na+]` (stereo partly drawn) [Compound 34, N-[1-Methyl-2-(1-ethoxycarbonyl-ethoxycarbonyl)vinyl]-L-phenylalanine sodium salt], in series [5] (rabbit 2.5-3kg), the “Blood glucose response (6 I.U.)” value was 45-55%, the “Time course: Lowest level” value was in the range of 45 to 60 min, the “Time course: Onset” value stood at 15 min and the “Time course: Return” value was 150 min. In series [6] (setting [14]), the “Concentration in blood, 15 min.” value amounted to 1250 ng/mL; the “Concentration in blood, 30 min.” value stood at 830 ng/mL; the “Concentration in blood, 60 min.” value turned out to be 610 ng/mL; the “Concentration in blood, 120 min.” value stood at 390 ng/mL.
`CC(N[C@@H](C(=O)[O-])c1ccccc1)=C1CCOC1=O.[Na+]` [Compound 6, N-[1-(Tetrahydro-2-furanone-3-ylidene)ethyl]-D-phenylglycine sodium salt]: the “half-life t 0.5” value in series [1] is 478 min.
